Measured values taken from patent US7301024B2, “Crystalline forms of gatifloxacin and processes for preparation” (Teva Pharmaceutical Industries Ltd., priority 2002, dated 2007).

What was measured:
[1] = solid-state form after storage at 40° C. and 75% relative humidity, analyzed by XRD; type: physicochemical; details: 3 months
Procedure: As used in connection with the present invention, x-ray diffraction refers to x-ray diffraction by the powder diffraction technique (PXRD). X-ray powder diffraction analysis was performed using a Scintag powder diffractometer with variable goniometer, a Cu source, and a solid state detector. A standard round aluminum sample holder with zero background quartz plate was used. Samples were scanned from 2° to 40° 2θ at 3° per minute. Reflections are reported as peak maxima in the Intensity vs. 2θ plots, and are subject to the normal experimental error (uncertainty). Wet samples were promptly analyzed “as is,” i.e., without drying or grinding prior to the analysis.
Gatifloxacin form CH2 can also be made by heating form Ω to between about 25° C. and about 50° C. at a relative humidity of about 60% to about 80%, preferably for at least about one month. Gatifloxacin so formed is a mixture of form Ω and form CH2.
4. Gatifloxacin form Ω (3 g) was heated to 40° C. at 75% of relative humidity for 3 months.

[2] = sesquihydrate compared with hemihydrate; cited from earlier work
[3] = compared with the other crystalline forms of U.S. Pat. No. 6,413,969; cited from earlier work
[4] = room temperature; compared with the other crystalline forms of U.S. Pat. No. 6,413,969; cited from earlier work
[5] = compared with hemihydrate; cited from earlier work

For `COc1c(N2CCNC(C)C2)c(F)cc2c(=O)c(C(=O)O)cn(C3CC3)c12` (racemic) [form Ω, (±)-1-cyclopropyl-6-fluoro-1,4-dihydro-8-methoxy-7-(3-methyl-1-piperazinyl)-4-oxo-3-quinolinecarboxylic acid], the “crystalline form found by XRD after storage” value [1] was “mixture of gatifloxacin form Ω and form CH2”.
For `COc1c(N2CCNC(C)C2)c(F)cc2c(=O)c(C(=O)O)cn(C3CC3)c12` (racemic) [hemihydrate, (±)-1-cyclopropyl-6-fluoro-1,4-dihydro-8-methoxy-7-(3-methyl-1-piperazinyl)-4-oxo-3-quinolinecarboxylic acid], the hygroscopicity [2] is given as “hygroscopic”.
For `COc1c(N2CCNC(C)C2)c(F)cc2c(=O)c(C(=O)O)cn(C3CC3)c12` (racemic) [pentahydrate, (±)-1-cyclopropyl-6-fluoro-1,4-dihydro-8-methoxy-7-(3-methyl-1-piperazinyl)-4-oxo-3-quinolinecarboxylic acid], the thermodynamic stability [3] is given as “most thermodynamically stable form” and the aqueous solubility [4] is given as “lowest”.
In the case of `COc1c(N2CCNC(C)C2)c(F)cc2c(=O)c(C(=O)O)cn(C3CC3)c12` (racemic) [sesquihydrate, (±)-1-cyclopropyl-6-fluoro-1,4-dihydro-8-methoxy-7-(3-methyl-1-piperazinyl)-4-oxo-3-quinolinecarboxylic acid], the hygroscopicity [2] is given as “less hygroscopic” and the stability in manufacturing [5] is given as “more stable in manufacturing”.
